From US20220401385A1, “Combination Therapy Based on PD-1 Signaling Inhibitors” (Kyoto University, priority 2019, published 2022) come the findings set out here.

Structures are written as SMILES.

This assay relates to MC38 cells. Briefly: MC38 mouse therapy model, tumor growth and survival. Type of assay: in vivo, C57BL/6 mice. The method, then: FIG. 1-1 a) CD8^+ T cells or CD3^+ T cells were isolated from mice, and 2×10^5 cells were stimulated with CD3/CD28 beads in 96-well U plates. After 24 hours and 48 hours, cells and culture supernatant were collected, followed by measurement of spermidine (SPD) concentration by mass spectrometry. […] Ten days after inoculation, PD-L1 antibody (2 mg/kg), PD-L1 antibody+SPD (2 mg/kg), or SPD alone was administered. Subsequently, PD-L1 antibody was administered 4 times at a regular interval of 5 days, and SPD was administered 8 times at a regular interval of 3 days. Tumor growth curve and survival curve are shown. c) Draining lymph nodes (DLNs) of mice were isolated 13 days after tumor inoculation, and stained with antibodies to CD8, CD44 and CD62L. The number of cells in draining lymph node (cells/DLN) in each treatment group is shown at the left side. After being gated, CD8^+ T cells were fractionated with CD44 and CD62L into P1 to P4 cell populations. Percentages and cell numbers of P1 to P4 in each treatment group are shown. d) Tumor was isolated 13 days after tumor inoculation and treated with collagenase. Percentages and numbers per mg tumor of tumor-infiltrating CD8^+ CD45.2^+ cells are shown. For statistical analysis, ANOVA was used. * p<0.05, ** p<0.01, *** p<0.001, **** p<0.0001.
FIG. 8 MC38 cells (5×10^5) were intradermally inoculated into C57BL/6 mice. Ten days after inoculation, PD-L1 antibody (2 mg/kg), PD-L1 antibody+SPD (2 mg/kg) or PD-L1 antibody+SPM (6 mg/kg) was administered. Subsequently, […] was administered 4 times at a regular interval of 5 days, whereas SPD and SPM were administered 8 times at a regular interval of 3 days. Tumor growth curve is shown.
MC38 cells (5×10^5) were intradermally injected on the right flank. Ten days after inoculation, PD-L1 antibody (1-111A; prepared by and stored at the Department of Immunology and Genomic Medicine, Graduate School of Medicine, Kyoto University) (Immunology Letters 84 (2002) 57-62) (2 mg/kg), PD-L1 antibody+SPD (2 mg/kg) or SPD alone was administered to mice. Subsequently, PD-L1 antibody was administered 4 times at a regular interval of 5 days, and SPD was administered 8 times at a regular interval of 3 days. Tumors were measured on every alternate day, and tumor volumes were calculated using the formula for typical ellipsoid, π×(length×breadth×height/6).

In the case of `NCCCNCCCCNCCCN` [SPM, spermine], the “effectiveness compared with SPD in enhancing the antitumor effect of PD-1 inhibitory antibody” value (SPM 6 mg/kg versus SPD 2 mg/kg, each + PD-L1 antibody, MC38) is on record as “slightly less effective than SPD”. Also, the “enhancement of the antitumor effect of PD-1 inhibitory antibody” value (SPM (6 mg/kg) + PD-L1 antibody (2 mg/kg), MC38 in C57BL/6 mice) is given as “induced to some extent an enhancement”.
